# From PubChem BioAssay AID2060901 (Molecular Pharmacology Branch, DTP, NCI, 2025)
# Tested on: 422866-222-R5-J1-PDC complex spheroids viability
# Test: Anticancer human tumor 422866-222-R5-J1-PDC patient-derived pancreatic adenocarcinoma cell line growth inhibition [RAS]
# Settings: for viability, T/C: stronger effect = lower value
# How it was run: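 Agents were tested in combination matrices in half-log decrements from a top concentration at or near clinical Cmax (10 microM if undetermined). Targets were multi-cell spheroids of tumour lines plus HUVEC and MSC stromal cells.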
# [1] = curve of first compound, second compound 0.000949 µM
# [2] = curve of first compound, second compound 0.003 µM
# [3] = curve of first compound, second compound 0.00949 µM
# [4] = curve of first compound, second compound 0.03 µM
# [5] = curve of first compound, second compound 0.0949 µM
# [6] = curve of first compound, second compound 0.3 µM
# [7] = second compound 0.000949 µM, first compound 0.0316 µM
# [8] = second compound 0.000949 µM, first compound 0.1 µM
# [9] = second compound 0.000949 µM, first compound 0.316 µM
# [10] = second compound 0.000949 µM, first compound 1 µM
# [11] = second compound 0.003 µM, first compound 0.0316 µM
# [12] = second compound 0.003 µM, first compound 0.1 µM
# [13] = second compound 0.003 µM, first compound 0.316 µM
# [14] = second compound 0.003 µM, first compound 1 µM
# [15] = second compound 0.00949 µM, first compound 0.0316 µM
# [16] = second compound 0.00949 µM, first compound 0.1 µM
# [17] = second compound 0.00949 µM, first compound 0.316 µM
# [18] = second compound 0.00949 µM, first compound 1 µM
# [19] = second compound 0.03 µM, first compound 0.0316 µM
# [20] = second compound 0.03 µM, first compound 0.1 µM
# [21] = second compound 0.03 µM, first compound 0.316 µM
# [22] = second compound 0.03 µM, first compound 1 µM
# [23] = second compound 0.0949 µM, first compound 0.0316 µM
# [24] = second compound 0.0949 µM, first compound 0.1 µM
# [25] = second compound 0.0949 µM, first compound 0.316 µM
# [26] = second compound 0.0949 µM, first compound 1 µM
# [27] = second compound 0.3 µM, first compound 0.0316 µM
# [28] = second compound 0.3 µM, first compound 0.1 µM
# [29] = second compound 0.3 µM, first compound 0.316 µM
# [30] = second compound 0.3 µM, first compound 1 µM
# 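Further: spheroids exposed to compounds for 7 days.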
# 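Wherever viability, T/C is given: 100% = DMSO vehicle control viability.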
smiles,measurement,setting,value
CCc1c2c(nc3ccc(O)cc13)-c1cc3c(c(=O)n1C2)COC(=O)[C@]3(O)CC + C=CC(=O)N1CCN(c2nc(OCC3CCCN3C)nc3c(F)c(-c4nc(N)cc(C)c4C(F)(F)F)c(Cl)cc23)C(C)C1,IC50,"curve of first compound, second compound 0.00316 µM",< 0.949 nM
same,IC50,"curve of first compound, second compound 0.01 µM",< 0.949 nM
same,IC50,"curve of first compound, second compound 0.0316 µM",< 0.949 nM
same,IC50,"curve of first compound, second compound 0.1 µM",< 0.949 nM
same,IC50,"curve of first compound, second compound 0.316 µM",< 0.949 nM
same,IC50,"curve of first compound, second compound 1 µM",< 0.949 nM
same,"viability, T/C","second compound 0.00316 µM, first compound 0.000949 µM",25.3%
same,"viability, T/C","second compound 0.00316 µM, first compound 0.003 µM",21.1%
same,"viability, T/C","second compound 0.00316 µM, first compound 0.00949 µM",15.8%
same,"viability, T/C","second compound 0.00316 µM, first compound 0.03 µM",15.9%
same,"viability, T/C","second compound 0.00316 µM, first compound 0.0949 µM",15.2%
same,"viability, T/C","second compound 0.00316 µM, first compound 0.3 µM",11.3%
same,"viability, T/C","second compound 0.01 µM, first compound 0.000949 µM",24.9%
same,"viability, T/C","second compound 0.01 µM, first compound 0.003 µM",20.7%
same,"viability, T/C","second compound 0.01 µM, first compound 0.00949 µM",18.1%
same,"viability, T/C","second compound 0.01 µM, first compound 0.03 µM",18.3%
same,"viability, T/C","second compound 0.01 µM, first compound 0.0949 µM",12.9%
same,"viability, T/C","second compound 0.01 µM, first compound 0.3 µM",10.9%
same,"viability, T/C","second compound 0.0316 µM, first compound 0.000949 µM",25.3%
same,"viability, T/C","second compound 0.0316 µM, first compound 0.003 µM",18.3%
same,"viability, T/C","second compound 0.0316 µM, first compound 0.00949 µM",16.8%
same,"viability, T/C","second compound 0.0316 µM, first compound 0.03 µM",14.8%
same,"viability, T/C","second compound 0.0316 µM, first compound 0.0949 µM",15.4%
same,"viability, T/C","second compound 0.0316 µM, first compound 0.3 µM",15.6%
same,"viability, T/C","second compound 0.1 µM, first compound 0.000949 µM",21.8%
same,"viability, T/C","second compound 0.1 µM, first compound 0.003 µM",15.9%
same,"viability, T/C","second compound 0.1 µM, first compound 0.00949 µM",15.4%
same,"viability, T/C","second compound 0.1 µM, first compound 0.03 µM",16.2%
same,"viability, T/C","second compound 0.1 µM, first compound 0.0949 µM",14.6%
same,"viability, T/C","second compound 0.1 µM, first compound 0.3 µM",10.9%
same,"viability, T/C","second compound 0.316 µM, first compound 0.000949 µM",19.1%
same,"viability, T/C","second compound 0.316 µM, first compound 0.003 µM",17.5%
same,"viability, T/C","second compound 0.316 µM, first compound 0.00949 µM",15.6%
same,"viability, T/C","second compound 0.316 µM, first compound 0.03 µM",14.2%
same,"viability, T/C","second compound 0.316 µM, first compound 0.0949 µM",12.8%
same,"viability, T/C","second compound 0.316 µM, first compound 0.3 µM",12.3%
same,"viability, T/C","second compound 1 µM, first compound 0.000949 µM",17%
same,"viability, T/C","second compound 1 µM, first compound 0.003 µM",16%
same,"viability, T/C","second compound 1 µM, first compound 0.00949 µM",17.1%
same,"viability, T/C","second compound 1 µM, first compound 0.03 µM",14%
same,"viability, T/C","second compound 1 µM, first compound 0.0949 µM",14.4%
same,"viability, T/C","second compound 1 µM, first compound 0.3 µM",13.1%
CCn1c(-c2cc(N3CCN(C)CC3)cnc2C(C)OC)c2c3cc(ccc31)-c1csc(n1)CC(NC(=O)C1CC1C)C(=O)N1CCCC(N1)C(=O)OCC(C)(C)C2 (centres undefined),"viability, T/C",compound 0.000949 µM,29.7% [middle of 8 runs]
same,"viability, T/C",compound 0.003 µM,22.6% [middle of 8 runs]
same,"viability, T/C",compound 0.00949 µM,19.6% [middle of 8 runs]
same,"viability, T/C",compound 0.03 µM,20.2% [middle of 8 runs]
same,"viability, T/C",compound 0.0949 µM,23% [middle of 8 runs]
same,"viability, T/C",compound 0.3 µM,21.7% [middle of 8 runs]
same,IC50,"compound alone, run of 05/20/2024",< 0.949 nM
Cc1nc(N2CCC3(CC2)COC(C)C3N)c(CO)nc1Sc1ccnc(N)c1Cl (centres undefined) + CCn1c(-c2cccnc2C(C)OC)c2c3cc(ccc31)N1CCOC(CC(NC(=O)C(C(C)C)N(C)C(=O)C3(F)CCN(C(=O)C#CC(C)(C)N(C)C)CC3)C(=O)N3CCCC(N3)C(=O)OCC(C)(C)C2)C1,IC50,[1],< 31.6 nM
same,IC50,[2],< 31.6 nM
same,IC50,[3],< 31.6 nM
same,IC50,[4],< 31.6 nM
same,IC50,[5],< 31.6 nM
same,IC50,[6],< 31.6 nM
same,"viability, T/C",[7],23.6%
same,"viability, T/C",[8],22.8%
same,"viability, T/C",[9],17.9%
same,"viability, T/C",[10],17.6%
same,"viability, T/C","second compound 0.000949 µM, first compound 3.16 µM",16.4%
same,"viability, T/C","second compound 0.000949 µM, first compound 10 µM",17.5%
same,"viability, T/C",[11],20.9%
same,"viability, T/C",[12],18.5%
same,"viability, T/C",[13],17.1%
same,"viability, T/C",[14],17.9%
same,"viability, T/C","second compound 0.003 µM, first compound 3.16 µM",15.9%
same,"viability, T/C","second compound 0.003 µM, first compound 10 µM",23.2%
same,"viability, T/C",[15],20%
same,"viability, T/C",[16],16.3%
same,"viability, T/C",[17],15.8%
same,"viability, T/C",[18],14.1%
same,"viability, T/C","second compound 0.00949 µM, first compound 3.16 µM",16.4%
same,"viability, T/C","second compound 0.00949 µM, first compound 10 µM",13.6%
same,"viability, T/C",[19],20.8%
same,"viability, T/C",[20],15.6%
same,"viability, T/C",[21],12.8%
same,"viability, T/C",[22],14.9%
same,"viability, T/C","second compound 0.03 µM, first compound 3.16 µM",13.5%
same,"viability, T/C","second compound 0.03 µM, first compound 10 µM",13.8%
same,"viability, T/C",[23],15.6%
same,"viability, T/C",[24],13.4%
same,"viability, T/C",[25],13.9%
same,"viability, T/C",[26],11.9%
same,"viability, T/C","second compound 0.0949 µM, first compound 3.16 µM",15.6%
same,"viability, T/C","second compound 0.0949 µM, first compound 10 µM",14.2%
same,"viability, T/C",[27],17.5%
same,"viability, T/C",[28],13.9%
same,"viability, T/C",[29],14.9%
same,"viability, T/C",[30],12.5%
same,"viability, T/C","second compound 0.3 µM, first compound 3.16 µM",17.3%
same,"viability, T/C","second compound 0.3 µM, first compound 10 µM",18.8%
Nc1ccn(C2OC(CO)C(O)C2(F)F)c(=O)n1 (centres undefined),"viability, T/C",compound 0.00316 µM,91.2% [middle of 4 runs]
same,"viability, T/C",compound 0.01 µM,82.8% [middle of 4 runs]
same,"viability, T/C",compound 0.0316 µM,72.5% [middle of 4 runs]
same,"viability, T/C",compound 0.1 µM,55% [middle of 4 runs]
same,"viability, T/C",compound 0.316 µM,42.9% [middle of 4 runs]
same,"viability, T/C",compound 1 µM,37.8% [middle of 4 runs]
CCN1CCN(Cc2ccc(Nc3ncc(F)c(-c4cc(F)c5nc(C)n(C(C)C)c5c4)n3)nc2)CC1 + CCn1c(-c2cccnc2C(C)OC)c2c3cc(ccc31)N1CCOC(CC(NC(=O)C(C(C)C)N(C)C(=O)C3(F)CCN(C(=O)C#CC(C)(C)N(C)C)CC3)C(=O)N3CCCC(N3)C(=O)OCC(C)(C)C2)C1,IC50,[1],< 3.16 nM
same,IC50,[2],< 3.16 nM
same,IC50,[3],< 3.16 nM
same,IC50,[4],< 3.16 nM
same,IC50,[5],< 3.16 nM
same,IC50,[6],< 3.16 nM
same,"viability, T/C","second compound 0.000949 µM, first compound 0.00316 µM",30.8%
same,"viability, T/C","second compound 0.000949 µM, first compound 0.01 µM",26.9%
same,"viability, T/C",[7],27.2%
same,"viability, T/C",[8],25.8%
same,"viability, T/C",[9],30%
same,"viability, T/C",[10],39%
same,"viability, T/C","second compound 0.003 µM, first compound 0.00316 µM",23.8%
same,"viability, T/C","second compound 0.003 µM, first compound 0.01 µM",24.9%
same,"viability, T/C",[11],23.7%
same,"viability, T/C",[12],20.3%
same,"viability, T/C",[13],26.3%
same,"viability, T/C",[14],37.5%
same,"viability, T/C","second compound 0.00949 µM, first compound 0.00316 µM",25%
same,"viability, T/C","second compound 0.00949 µM, first compound 0.01 µM",21.9%
same,"viability, T/C",[15],20%
same,"viability, T/C",[16],21.5%
same,"viability, T/C",[17],25.3%
same,"viability, T/C",[18],37.5%
same,"viability, T/C","second compound 0.03 µM, first compound 0.00316 µM",20.6%
same,"viability, T/C","second compound 0.03 µM, first compound 0.01 µM",19.9%
same,"viability, T/C",[19],16.8%
same,"viability, T/C",[20],19.1%
same,"viability, T/C",[21],26.7%
same,"viability, T/C",[22],40.3%
same,"viability, T/C","second compound 0.0949 µM, first compound 0.00316 µM",18.5%
same,"viability, T/C","second compound 0.0949 µM, first compound 0.01 µM",21.1%
same,"viability, T/C",[23],19.7%
same,"viability, T/C",[24],18.6%
same,"viability, T/C",[25],27.5%
same,"viability, T/C",[26],37.2%
same,"viability, T/C","second compound 0.3 µM, first compound 0.00316 µM",19.9%
same,"viability, T/C","second compound 0.3 µM, first compound 0.01 µM",18.8%
same,"viability, T/C",[27],18.8%
same,"viability, T/C",[28],17.1%
same,"viability, T/C",[29],24%
same,"viability, T/C",[30],34.9%
